Activity calls are given as the source filed them.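 Rule for the calls: active = IC50 of 10 µM or lower; inactive = IC50 above 10 µM.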
Biological target: Mitogen-activated protein kinase kinase kinase 5 (Homo sapiens) (UniProt Q99683)
Assay: ASK1 kinase inhibitor potency, dose response, biochemical, AlphaScreen, MKK6 phosphorylation (AID 1159605);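 note: ASK1 phosphorylation of MKK6 substrate detected with anti-phospho-MKK6 antibody beads; inhibitors lower the luminescent signal by blocking MKK6 phosphorylation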
Conditions: AlphaScreen luminescence

Sequence of Mitogen-activated protein kinase kinase kinase 5 (Homo sapiens) (Q99683 whole entry, looked up): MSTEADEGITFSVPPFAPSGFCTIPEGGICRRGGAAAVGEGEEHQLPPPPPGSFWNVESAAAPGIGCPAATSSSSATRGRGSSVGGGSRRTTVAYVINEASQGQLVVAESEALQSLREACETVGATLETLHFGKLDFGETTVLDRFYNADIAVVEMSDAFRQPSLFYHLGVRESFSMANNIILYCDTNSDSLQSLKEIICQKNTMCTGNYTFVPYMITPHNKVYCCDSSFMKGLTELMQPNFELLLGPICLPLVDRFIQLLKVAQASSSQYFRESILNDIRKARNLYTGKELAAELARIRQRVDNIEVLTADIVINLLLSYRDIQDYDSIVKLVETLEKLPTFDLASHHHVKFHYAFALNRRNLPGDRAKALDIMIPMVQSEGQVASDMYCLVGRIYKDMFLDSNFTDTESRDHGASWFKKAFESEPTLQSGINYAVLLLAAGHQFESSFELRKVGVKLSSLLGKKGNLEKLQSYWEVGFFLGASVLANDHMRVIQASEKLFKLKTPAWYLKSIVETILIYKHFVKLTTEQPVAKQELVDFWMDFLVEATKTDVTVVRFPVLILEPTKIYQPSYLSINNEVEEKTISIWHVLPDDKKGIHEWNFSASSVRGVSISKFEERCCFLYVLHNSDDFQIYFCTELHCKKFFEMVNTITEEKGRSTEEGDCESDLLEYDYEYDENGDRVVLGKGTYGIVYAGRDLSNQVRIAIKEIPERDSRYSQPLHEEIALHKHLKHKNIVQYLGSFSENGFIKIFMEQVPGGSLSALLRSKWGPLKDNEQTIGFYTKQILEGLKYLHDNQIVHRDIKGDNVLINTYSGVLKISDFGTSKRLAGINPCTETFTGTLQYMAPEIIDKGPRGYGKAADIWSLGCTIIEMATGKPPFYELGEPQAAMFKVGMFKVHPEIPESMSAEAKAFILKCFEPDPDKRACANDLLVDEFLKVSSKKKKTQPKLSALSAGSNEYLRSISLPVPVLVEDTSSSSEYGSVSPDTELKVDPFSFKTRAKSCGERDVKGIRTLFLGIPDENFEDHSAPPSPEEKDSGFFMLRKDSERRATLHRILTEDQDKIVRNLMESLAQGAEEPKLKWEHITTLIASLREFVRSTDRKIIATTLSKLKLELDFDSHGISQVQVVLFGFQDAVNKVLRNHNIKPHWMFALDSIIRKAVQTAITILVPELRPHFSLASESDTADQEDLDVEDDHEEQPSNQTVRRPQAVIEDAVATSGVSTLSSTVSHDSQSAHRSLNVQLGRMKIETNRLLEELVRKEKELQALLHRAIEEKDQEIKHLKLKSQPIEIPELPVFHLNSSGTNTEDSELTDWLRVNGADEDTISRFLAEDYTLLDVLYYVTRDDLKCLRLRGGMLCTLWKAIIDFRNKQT

Row | Compound | IC50
1 | c1ccc(N2CCN(c3nc(Nc4ccc(N5CCOCC5)cc4)c4ncn(C5CCCCC5)c4n3)CC2)nc1 | > 22.8 µM (inactive)
2 | COc1cc2nc(NCc3ccc4c(c3)OCO4)nc(Nc3ccc(N4CCOCC4)cc3)c2cc1OC | > 19.9 µM (inactive)
3 | CC(C)n1cnc2c(Nc3ccc(N4CCOCC4)cc3)nc(Nc3ccc(-n4ccnc4)cc3)nc21 | > 19.1 µM (inactive)
4 | O=C(NCCN1CCOCC1)c1cccc(-n2ncc3cc(Nc4c(F)cccc4[N+](=O)[O-])ccc32)c1 | > 19.2 µM (inactive)
5 | COc1ccc(CCNC(=O)c2ccnc(Nc3cccc(N(C)C)c3)c2)cc1 | > 20 µM (inactive)
6 | Cc1c[nH]c2ncnc(-c3ccc(NC(=O)Nc4ccccc4)cc3)c12 | > 19.2 µM (inactive)
7 | FC(F)(F)c1cccc(CNc2nc(Nc3ccc(N4CCOCC4)cc3)nc3c2ncn3-c2ccsc2)c1 | 8.62 µM
8 | c1cc(-c2ccc3[nH]ncc3c2)nc(Nc2ccc(N3CCOCC3)cc2)n1 | > 19.2 µM (inactive)
9 | c1ccc(CN2CCC(Nc3nc(Nc4ccc(N5CCOCC5)cc4)nc4c3ncn4C3CCCCC3)CC2)cc1 | 7.91 µM
10 | CN(C)c1cccc(Nc2nccc(NCc3cccc(C(F)(F)F)c3)n2)c1 | > 16.5 µM (inactive)
11 | Cc1cc(NC2CCN(Cc3ccccc3)CC2)nc(Nc2cccc(N(C)C)c2)n1 | > 21.2 µM (inactive)
12 | Oc1ccc(CCNc2nc(N3CCN(c4ccccn4)CC3)nc3c2ncn3-c2ccsc2)cc1 | > 21.3 µM (inactive)
13 | CN(C)c1cccc(Nc2ccc(-n3cc(CC(=O)Nc4ccc5c(c4)OCO5)c4ccccc43)nn2)c1 | > 19 µM (inactive)
14 | Cc1cc(Nc2ccc(N3CCOCC3)cc2)nc(N2CCN(Cc3ccc4c(c3)OCO4)CC2)n1 | inactive
15 | Cn1cc(-c2ccc3cnc(Nc4ccc(-n5cnc(N6CCOCC6)n5)cc4)nc3c2)cn1 | > 19.2 µM (inactive)
16 | c1ccc(CN2CCC(Nc3ccnc(Nc4ccc(N5CCOCC5)cc4)n3)CC2)cc1 | inactive

Next, values leading:

Row | IC50 | Compound
17 | inactive | COc1cc2nc(Nc3ccc(N4CCOCC4)cc3)nc(NC3CC3)c2cc1OC
18 | > 19.2 µM (inactive) | Fc1cc(-c2ccnc(Nc3ccc(N4CCOCC4)cc3)n2)cc(N2CCN(C3CC3)CC2)c1
19 | 5.36 µM | FC(F)(F)c1ccc(Cn2cnc3c(Nc4ccc5c(c4)OCO5)nc(Nc4ccc(N5CCOCC5)cc4)nc32)cc1
20 | inactive | FC(F)(F)c1cccc(CNc2ccnc(Nc3ccc(N4CCOCC4)cc3)n2)c1
21 | > 19.2 µM (inactive) | COc1cc(NC(=O)c2cccc(-n3cc(NC(=O)Nc4ccc(-c5ccccc5)cc4)cn3)c2)cc(OC)c1OC
22 | inactive | COc1ccc(CCNc2nc(Nc3ccc(N4CCOCC4)cc3)ncc2C)cc1
23 | > 20 µM (inactive) | FC(F)(F)c1ccc(Cn2cnc3c(Nc4ccc5c(c4)OCO5)nc(N4CCN(c5ccccn5)CC4)nc32)cc1
24 | > 22.5 µM (inactive) | COc1ccc(CCNc2nc(N3CCN(Cc4ccc5c(c4)OCO5)CC3)nc3c2ncn3C2CCCCC2)cc1
25 | 8.95 µM | COc1cc2nc(Nc3nc4ccccc4n3C)nc(Nc3ccc(N4CCOCC4)cc3)c2cc1OC
26 | > 19.2 µM (inactive) | Fc1ccc(-c2c(-c3ccnc(Nc4ccc(N5CCOCC5)cc4)c3)noc2NCc2ccccc2)cc1
27 | > 20 µM (inactive) | CN(C)c1cccc(Nc2nc(NCCc3ccc(O)cc3)c3ncn(-c4ccccc4)c3n2)c1
28 | inactive | CCCNc1nc(Nc2ccc(N3CCOCC3)cc2)nc2c1ncn2C1CCCCC1
29 | inactive | COc1ccc(CCNc2nc(Nc3ccc(N4CCOCC4)cc3)nc3cc(OC)c(OC)cc23)cc1
30 | inactive | CCN(CC)C(=O)C1CCCN(c2nc(Nc3ccc(N4CCOCC4)cc3)c3ncn(Cc4ccc(C(F)(F)F)cc4)c3n2)C1 (stereo unspecified)
31 | > 17.3 µM (inactive) | NC(=O)c1ccc(-c2nc(NCc3cccc(C(F)(F)F)c3)c3ncn(Cc4ccc(C(F)(F)F)cc4)c3n2)cc1

Reference: PubChem BioAssay AID1159605 (The Scripps Research Institute Molecular Screening Center, 2016)
